By EC50 is commonly meant the midpoint of the concentration-response curve. The solubility is the dissolved amount per volume that the medium holds. Read a low solubility as a poorly soluble substance.

SMILES strings stand for the structures. Values after ≈ are worked out from the molar mass of the structure shown.

The subject of series [1] is T. cruzi amastigote (Tulahuen strain expressing β-galactosidase). Description: Intracellular T. cruzi assay in 3T3 cells (beta-galactosidase, 96 h). To be noted: intracellular in 3T3 cells, 96 h; read-out: T. cruzi amastigote EC50. Type of series: cell-based, Trypanosoma cruzi. The method, then:
In a 96-well plate, 5×10^4 3T3 cells in DMEM without phenol red supplemented with 2% FBS were added to each well. Cells were incubated for 2 h to allow for attachment. Compounds were added in triplicates at 50 μM and in serial dilutions 1:2. To each well, 5×10^4 T. cruzi trypomastigotes (Tulahuen strain expressing β-galactosidase) were added and incubated at 37°C, 5% CO2 for 96 h. Following incubation, 50 μL of 500 μM chlorophenol Red-β-D-galactopyranoside (CPRG) in phosphate-buffered saline with 0.5% NP40 was added to each well and incubated at 37°C, 5% CO2 for 4 h. Absorbance was read at 590–595 nm.

Series [2] deals with L. major amastigote. As to the kind of experiment: L. major intracellular amastigote luciferase assay in RAW 264.7 macrophages. Type of series: cell-based, Leishmania major. The conditions noted are these: intracellular amastigotes in RAW 264.7 macrophages, 96 h. The method, then: Amastigote assays were performed using pLEXSY-hyg2-luciferase L. major transfected promastigotes and the murine RAW 264.7 macrophage cell line (ATCC TIB-71, Manassas, VA). Briefly, luciferase-expressing promastigotes of each Leishmania species were generated by adding a luciferase encoding region to the pLEXSY-hyg2 vector (Jena Biosciences, Germany) as described. One μg of the linearized pLEXSY-hyg2-luciferase vector were electroporated (480 V, 13 Ω, and 500 μF) into 4×10^7 Leishmania promastigotes. Selection for stable promastigote transfectants was carried out using hygromycin B (100 μg/mL). RAW 264.7 macrophages were maintained in growth medium (Dulbecco’s Modified Eagle’s Medium supplemented with heat-inactivated 10% FBS (Life Technologies)). Cells were harvested and resuspended in growth medium at 2.0×10^5 cells/mL, and 1×10^4 cells/well were dispensed (final volume 50 μL) in each well of a 384 well tissue-culture treated white plate using a EVO Freedom liquid handling system (Tecan, Durham, NC). Plates were incubated at 37°C in 5% CO2 for 24 h after which the culture medium was removed from each well using the EVO Freedom liquid handler. Metacyclic phase pLEXSY-hyg2-luciferase-Leishmania promastigotes (MOI = 1:10 L. major) were added to each assay plate well and allowed to infect the RAW 264.7 macrophages. After an overnight incubation, the growth medium was aspirated and each well was washed three times with 40 μL of fresh growth medium to remove non-internalized promastigotes. After the third wash, 69.2 μL of growth medium was added to each well. Compound dilutions (final concentration ranges 0.5–10,000 ng/mL) were generated and dispensed using the liquid handling system. Compound treated plates were incubated at 37°C in 5% CO2 for 96 h. After incubation, 7.5 μL of a luciferin solution (Caliper Life Science, Waltham, MA) diluted to 150 μg/mL was added to each well, and the plates were incubated for 30 min at 37°C in the dark. Data were captured using an Infinite M200 plate reader (Tecan). EC50s were generated for each concentration response test using GraphPad Prism software 6.0.

In series [3] the test system is NIH/3T3 cells. As to the kind of experiment: Drug toxicity to 3T3 cells (Alamar Blue, 96 h). Type of series: cell-based. As to the method:
In a 96-well plate, 5×10^4 NIH/3T3 (ATCC CRL-1658) cells (purchased from ATCC) in DMEM without phenol red supplemented with 2% FBS were added to each well. Cells were incubated for 2 h to allow for attachment. Compounds were added in triplicates at 200 μM and in serial dilutions 1:2 and incubated at 37°C, 5% CO2 for 96 h. […] Following incubation, 10 μL of Alamar Blue (ThermoFisher) were added to each well and cells incubated at 37°C, 5% CO2 for 4 h. Absorbance was read at 590–595 nm.
For orientation: Resazurin is reduced to fluorescent resorufin, in cell work by metabolically active cells.

Series [4] relates to T. b. brucei (strain 427). Description: T. b. brucei proliferation assay (PrestoBlue, 48 h). Type of series: cell-based, Trypanosoma brucei brucei. The method, then: The assay was performed following a previously reported procedure. Briefly, in a 96-well plate, compounds were added in triplicates at 50 μM and in serial dilutions 1:2 in HMI-9 medium. To each well, 100 μL of 2.5×10^3 T. b. brucei (strain 427, received as a gift from Dr. C. C. Wang at UCSF) in HMI-9 medium was were added and incubated at 37°C, 5% CO2 for 48 h. Following incubation, 20 μL of PrestoBlue were added to each well and incubated for additional 4 h. Fluorescence was read at 530 nm excitation and 590 nm emission.

Series [5] has as its system HepG2 cells. As to the kind of experiment: Drug toxicity to HepG2 cells (MTT, 48 h). Type of series: cell-based, human. To be noted: tested concentration ranges based on compound solubility. The method, then:
HepG2 cells were cultured in complete Minimal Essential Medium prepared by supplementing MEM with 0.19% sodium bicarbonate, 10% heat inactivated FBS, 2 mM L-glutamine, 0.1 mM MEM non-essential amino, 0.009 mg/mL insulin, 1.76 mg/mL bovine serum albumin, 20 units/mL penicillin–streptomycin, and 0.05 mg/mL gentamycin. HepG2 cells cultured in complete MEM were first washed with 1× Hank’s Balanced Salt Solution (Invitrogen #14175095), trypsinized using a 0.25% trypsin/EDTA solution, assessed for viability using trypan blue, and resuspended at 250,000 cells/mL. Using a Tecan EVO Freedom robot, 38.3 μL of cell suspension were added to each well of clear, cell culture-treated 384-well microtiter plates for a final concentration of 9570 liver cells per well, and plated cells were incubated overnight in 5% CO2 at 37°C. Drug plates were prepared with the Tecan EVO Freedom using sterile 96 well plates containing twelve duplicate 1.6-fold serial dilutions of each test compound suspended in DMSO. 4.25 μL of diluted test compound was then added to the 38.3 μL of media in each well providing a […] final dilution of compound. Compounds were tested from a range of 57 ng/mL to 10,000 ng/mL for all assays. Mefloquine was used as a plate control for all assays with a concentration ranging from 113 ng/mL to 20,000 ng/mL. After a 48 h incubation period, 8 μL of a 1.5 mg/mL solution of MTT diluted in complete MEM media was added to each well. All plates were subsequently incubated in the dark for 1 h at room temperature. After incubation, the media and drugs in each well was removed by shaking the plate over sink, and the plates were left to dry in a fume hood for 15 mins. Next, 30 μL of isopropanol acidified by addition of HCl at a final concentration of 0.36% was added to dissolve the formazan dye crystals created by reduction of MTT. Plates are put on a 3-D rotator for 15–30 mins. Absorbance was determined in all wells using a Tecan iControl 1.6 Infinite plate reader.

The nature of series [6]: Human plasma protein binding. In kind it is in vitro ADME.
Series [7] can be described thus: Aqueous solubility. Type of series: physicochemical.
The nature of series [8]: LogD7.4. Type of series: physicochemical. To be noted: pH 7.4.
A short description of series [9]: Rat hepatocyte intrinsic clearance. In kind it is in vitro ADME.
Series [10] in a line: Human liver microsome intrinsic clearance. In kind it is in vitro ADME. (Microsomes from liver hold many membrane-bound enzymes, among them those of drug oxidation.)

On to `Cc1nnc(Nc2ccc3c(Nc4cnccn4)ccnc3c2)nc1C` [NEU-2151], for which the EC50 is over 50 µM in series [1], 26 µM in series [2] and 2.3 µM in [4]. Moreover, the “3T3 TC50” value in series [3] was over 100 µM. Further, in series [5], the “HepG2 TC50” value is 22 µM.
In the case of `CN1CCN(S(=O)(=O)c2ccc(-c3ccc4c(Nc5cccnc5)ccnc4c3)cc2)CC1` [NEU-1019], the “Human PPB” value in [6] worked out at 85%. The EC50 in series [1] was over 50 µM; in [2], 22 µM; in [4] it was 5.4 µM. Also, in series [3], the “3T3 TC50” value was over 100 µM. The solubility in series [7] is reported as 175 µM (≈ 80.4 µg/mL). In addition, the “HepG2 TC50” value in series [5] was 36 µM. In addition, the LogD7.4 in series [8] is given as 2.
Consider `Cc1cc(Nc2ccc3c(Nc4cnccn4)ccnc3c2)on1` [NEU-2150], for which the results for the EC50 in series [1], in series [2] and in [4] were 21 µM, 31 µM and 29 µM, respectively. Moreover, in series [3], the “3T3 TC50” value was over 100 µM. Moreover, in series [5], the “HepG2 TC50” value was found to be 48 µM.
`CN1CCN(S(=O)(=O)c2ccc(-c3ccc4c(Nc5ncc(Cl)cn5)ccnc4c3)cc2)CC1` [NEU-1025]: in series [6], the “Human PPB” value is 99%. Also, the values for the EC50 in series [1], in series [2] and in series [4] were 8.8 µM, 8.7 µM and 1.5 µM, respectively. In series [3], the “3T3 TC50” value was found to be 11 µM. In addition, in series [7], the solubility was found to be 4.8 µM (≈ 2.38 µg/mL). The “HepG2 TC50” value in [5] is 31 µM. The same compound returned a LogD7.4 in series [8] of 4.1.
As to `c1cnc(Nc2ccnc3cc(-c4cn[nH]c4)ccc23)cn1` [NEU-2088], in series [9], the “Rat Hepatocyte CLint” value is 5 μL/min/10^6 cells. Moreover, the “Human Liver Microsome CLint” value in series [10] came out at 130 µL/min/mg. Further, the EC50 in [1] was over 50 µM; in series [2], 3 µM; in [4], 0.29 µM. This compound had a solubility in [7] of 1 µM (≈ 0.288 µg/mL). Moreover, the “HepG2 TC50” value in [5] came out at 4.5 µM. Moreover, the LogD7.4 in series [8] was 2.6.
As to `COc1ccc(Nc2ccnc3cc(-c4cnn(C)c4)ccc23)cc1Cl` [NEU-2130], the EC50 was found to be 1.9 µM in series [1], 29 µM in series [2] and 2.6 µM in series [4]. Also, the “3T3 TC50” value in series [3] was over 100 µM. For the same compound, the “HepG2 TC50” value in series [5] amounted to 44 µM.
In the case of `CN1CCN(S(=O)(=O)c2ccc(-c3ccc4c(Nc5ccc6[nH]nnc6c5)ccnc4c3)cc2)CC1` [NEU-1018], in [6], the “Human PPB” value was 98%. In addition, the EC50 is over 50 µM in series [1], 17 µM in series [2] and over 50 µM in [4]. The “3T3 TC50” value in series [3] is over 100 µM. In series [7], this compound returned a solubility of under 1 µM. The “HepG2 TC50” value in series [5] amounted to 28 µM. The compound also came in with a LogD7.4 in [8] of 3.4.
Take `Cc1cc(Nc2ccnc3cc(-c4ccc(S(=O)(=O)N5CCN(C)CC5)cc4)ccc23)sn1` [NEU-1023]: in series [6], the “Human PPB” value was found to be 99%. The EC50 turned out to be 25 µM in series [1], 8.4 µM in [2] and 0.6 µM in series [4]. The “3T3 TC50” value in series [3] was over 100 µM. In series [7], this compound came in with a solubility of under 1 µM. Also, the “HepG2 TC50” value in series [5] came to 35 µM. The compound further displayed a LogD7.4 in series [8] of 4.2.
Regarding `Cc1nnc(Nc2ccnc3cc(-c4ccc(S(=O)(=O)N5CCN(C)CC5)cc4)ccc23)nc1C` [NEU-1028], in series [6], the “Human PPB” value stood at 93%. Moreover, the EC50 in series [1] is over 50 µM; in series [2] it was 4 µM; in series [4], over 50 µM. Further, the “3T3 TC50” value in series [3] is over 100 µM. Besides, the solubility in [7] stood at 1.5 µM (≈ 0.734 µg/mL). Moreover, the “HepG2 TC50” value in series [5] was 6.4 µM. The LogD7.4 in series [8] was 3.4.
With `CN1CCN(S(=O)(=O)c2ccc(-c3ccc4c(Nc5ccnnc5)ccnc4c3)cc2)CC1` [NEU-1020], the “Human PPB” value in [6] came out at 57%. For the same compound, the EC50 was over 50 µM in series [1], 22 µM in [2] and over 50 µM in series [4]. In addition, the “3T3 TC50” value in [3] is over 100 µM. This compound gave a solubility in series [7] of over 1000 µM. In addition, the “HepG2 TC50” value in series [5] is 36 µM. The compound also came in with a LogD7.4 in series [8] of -0.5.
For `COc1ccc(Nc2ccnc3cc(Nc4nccc(N5CCN(C)CC5)n4)ccc23)cc1Cl` [NEU-2090], the “Rat Hepatocyte CLint” value in [9] stood at 7.2 μL/min/10^6 cells. Further, the “Human PPB” value in series [6] is listed as 99%. Also, the EC50 in series [1] was over 20 µM; in series [2], 2.3 µM; in [4], 0.35 µM. The solubility in series [7] is given as 570 µM (≈ 271 µg/mL). Further, the “HepG2 TC50” value in [5] was 7.6 µM. For the same compound, in series [8], the LogD7.4 is listed as 3.3.
As for `CN1CCN(S(=O)(=O)c2ccc(-c3ccc4c(Nc5cnc(C#N)cn5)ccnc4c3)cc2)CC1` [NEU-1024], the “Human PPB” value in series [6] is reported as 97%. Also, the EC50 in [1] was over 50 µM; in [2] it was 19 µM; in series [4], 3 µM. Further, in series [3], the “3T3 TC50” value was over 100 µM. Moreover, in series [7], the solubility is under 1 µM. In addition, in [5], the “HepG2 TC50” value worked out at 31 µM. In series [8], this compound had a LogD7.4 of 3.7.
For the compound `COc1ccc(Nc2ccnc3cc(-c4cn[nH]c4)ccc23)cc1Cl` [NEU-2087], the “Rat Hepatocyte CLint” value in [9] is reported as 5 μL/min/10^6 cells. Also, the “Human Liver Microsome CLint” value in series [10] came out at 8 µL/min/mg. In addition, the “Human PPB” value in series [6] worked out at 97%. Also, the EC50 in series [1] was over 50 µM; in series [2], 29 µM; in series [4], 0.91 µM. Further, the solubility in [7] is given as 2 µM (≈ 0.702 µg/mL). The “HepG2 TC50” value in series [5] worked out at 23 µM. For the same compound, in series [8], the LogD7.4 is 3.5.
